Active and inactive are the calls of the source.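 How the source made its calls: active means EC50 below a set limit; inactive means the rest.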
Molecular target: Kappa-type opioid receptor (Homo sapiens) (UniProt P41145)
Test: kappa opioid receptor activation by imaging – image-based, set 3, SAR follow-up (AID 488833)
Settings: U2OS KOR beta-arrestin-GFP translocation imaging

Chain of Kappa-type opioid receptor (Homo sapiens) (P41145 whole entry, looked up): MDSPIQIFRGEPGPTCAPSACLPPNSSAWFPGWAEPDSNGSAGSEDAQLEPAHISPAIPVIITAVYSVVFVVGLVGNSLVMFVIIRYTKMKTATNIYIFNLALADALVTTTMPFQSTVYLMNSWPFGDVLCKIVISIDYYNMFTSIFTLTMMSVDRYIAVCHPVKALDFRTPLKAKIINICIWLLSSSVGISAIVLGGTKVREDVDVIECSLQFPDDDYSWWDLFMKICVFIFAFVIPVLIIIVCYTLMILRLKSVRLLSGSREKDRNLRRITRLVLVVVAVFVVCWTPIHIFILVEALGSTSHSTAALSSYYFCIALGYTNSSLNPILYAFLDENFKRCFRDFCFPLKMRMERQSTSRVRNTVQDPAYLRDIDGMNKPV

EC50: inactive
Structure (SMILES): Cc1ccccc1CSc1nnc(-c2ccccn2)n1Cc1cccs1

— PubChem BioAssay AID488833 (Sanford-Burnham Center for Chemical Genomics, 2010)
